Source: ChEMBL document CHEMBL5257030, “Antioxidant, anticancer activities and mechanistic studies of the flavone glycoside diosmin and its oxidovanadium(IV) complex. Interactions with bovine serum albumin” (Bioorg Med Chem, 2016)
Active and inactive are the calls of the source. The calls are words filed in the database; no cut-off is given here.

Columns and labels:
SK-BR-3 [1] = test: Antiproliferative activity against human SK-BR-3 cells assessed as inhibition of cell growth measured after 24 hrs by MTT assay; type: functional, cell-based; conditions: SK-BR-3, 24 h
Albumin [2] = biological target: T1, Albumin (Bos taurus, UniProt P02769); test: Binding affinity to bovine serum albumin assessed as free energy change at 310 K; conditions: cattle
Albumin [3] = biological target: T1, Albumin; test: Binding affinity to bovine serum albumin assessed as free energy change at 303 K; conditions: cattle
Albumin [4] = biological target: T1, Albumin; test: Binding affinity to bovine serum albumin assessed as Stem-Volmer quenching constant at 298 K after 1 hr by luminescence spectrometric analysis; conditions: cattle
Albumin [5] = biological target: T1, Albumin; test: Binding affinity to bovine serum albumin assessed as quenching rate constant at 310 K after 1 hr by luminescence spectrometric analysis; conditions: cattle
Albumin [6] = biological target: T1, Albumin; test: Binding affinity to bovine serum albumin assessed as Stem-Volmer quenching constant at 303 K after 1 hr by luminescence spectrometric analysis; conditions: cattle
Albumin [7] = biological target: T1, Albumin; test: Binding affinity to bovine serum albumin assessed as change in enthalpy; conditions: cattle
T47D [8] = test: Cytotoxicity against human T47D cells assessed as disruption of mitochondrial membrane potential by measuring TMRM level in mitochondria at 10 uM after 24 hrs by fluorescence assay relative to control; type: functional
Albumin [9] = biological target: T1, Albumin; test: Binding affinity to bovine serum albumin assessed as quenching rate constant at 298 K after 1 hr by luminescence spectrometric analysis; conditions: cattle
A549 [10] = test: Antiproliferative activity against human A549 cells after 72 hrs by Alamar blue assay; type: functional, cell-based; conditions: A549, 72 h
SK-BR-3 [11] = test: Cytotoxicity against human SK-BR-3 cells assessed as ROS production at 10 uM after 24 hrs by CMH2DCFDA probe-based fluorescence assay relative to control; type: functional
MDA-MB-231 [12] = test: Cytotoxicity against human MDA-MB-231 cells assessed as ROS production at 10 uM after 24 hrs by CMH2DCFDA probe-based fluorescence assay relative to control; type: functional
Albumin [13] = biological target: T1, Albumin; test: Binding affinity to bovine serum albumin assessed as association constant at 310 K after 1 hr by luminescence spectrometric analysis; conditions: cattle
[14] = Antioxidant activity assessed as DPPH radical scavenging activity at 100 uM incubated for 60 mins in dark relative to control; type: functional
[15] = Antioxidant activity assessed as delay in time of AAPH-induced pyranine consumption at 100 uM by spectrophotometric analysis; type: functional
A549 [16] = test: Cytotoxicity against human A549 cells assessed as reduction in cell viability up to 100 uM measured after 24 hrs by crystal violet staining based assay; type: functional
A549 [17] = test: Cytotoxicity in human A549 cells assessed as increase in DHR123 oxidation to form rhodamine 123 measured after 30 mins by fluorescence spectroscopy; type: functional, cell-based
[18] = Antioxidant activity assessed as reduction in ascorbate-iron-H2O2-mediated hydroxy radical generation at 100 uM after 30 mins by thiobarbituric acid method; type: functional
MDA-MB-231 [19] = test: Cytotoxicity against human MDA-MB-231 cells assessed as disruption of mitochondrial membrane potential by measuring TMRM level in mitochondria at 10 uM after 24 hrs by fluorescence assay relative to control; type: functional
T47D [20] = test: Cytotoxicity against human T47D cells assessed as caspase3/7 activation at 10 uM after 24 hrs by fluorescence assay relative to control; type: functional
T47D [21] = test: Cytotoxicity against human T47D cells assessed as ROS production at 10 uM after 24 hrs by CMH2DCFDA probe-based fluorescence assay relative to control; type: functional
Albumin [22] = biological target: T1, Albumin; test: Binding affinity to bovine serum albumin assessed as Stem-Volmer quenching constant at 310 K after 1 hr by luminescence spectrometric analysis; conditions: cattle
SK-BR-3 [23] = test: Cytotoxicity against human SK-BR-3 cells assessed as disruption of mitochondrial membrane potential by measuring TMRM level in mitochondria at 10 uM after 24 hrs by fluorescence assay relative to control; type: functional
Albumin [24] = biological target: T1, Albumin; test: Binding affinity to bovine serum albumin assessed as free energy change at 298 K; conditions: cattle
T47D [25] = test: Antiproliferative activity against human T47D cells assessed as inhibition of cell growth measured after 24 hrs by MTT assay; type: functional, cell-based
Albumin [26] = biological target: T1, Albumin; test: Binding affinity to bovine serum albumin assessed as association constant at 303 K after 1 hr by luminescence spectrometric analysis; conditions: cattle
Albumin [27] = biological target: T1, Albumin; test: Binding affinity to bovine serum albumin assessed as association constant at 298 K after 1 hr by luminescence spectrometric analysis; conditions: cattle
MDA-MB-231 [28] = test: Antiproliferative activity against human MDA-MB-231 cells assessed as inhibition of cell growth measured after 24 hrs by MTT assay; type: functional, cell-based; conditions: MDA-MB-231, 24 h
Albumin [29] = biological target: T1, Albumin; test: Binding affinity to bovine serum albumin assessed as quenching rate constant at 303 K after 1 hr by luminescence spectrometric analysis; conditions: cattle
[30] = Antioxidant activity assessed as reduction in PMS induced superoxide anion activity preincubated for 15 mins followed by PMS addition and measured after 5 mins by NBT assay; type: functional; conditions: time 20.0 min
SK-BR-3 [31] = test: Cytotoxicity against human SK-BR-3 cells assessed as caspase3/7 activation at 10 uM after 24 hrs by fluorescence assay relative to control; type: functional
MDA-MB-231 [32] = test: Cytotoxicity against human MDA-MB-231 cells assessed as caspase3/7 activation at 10 uM after 24 hrs by fluorescence assay relative to control; type: functional

T1 sequence (P02769 whole entry): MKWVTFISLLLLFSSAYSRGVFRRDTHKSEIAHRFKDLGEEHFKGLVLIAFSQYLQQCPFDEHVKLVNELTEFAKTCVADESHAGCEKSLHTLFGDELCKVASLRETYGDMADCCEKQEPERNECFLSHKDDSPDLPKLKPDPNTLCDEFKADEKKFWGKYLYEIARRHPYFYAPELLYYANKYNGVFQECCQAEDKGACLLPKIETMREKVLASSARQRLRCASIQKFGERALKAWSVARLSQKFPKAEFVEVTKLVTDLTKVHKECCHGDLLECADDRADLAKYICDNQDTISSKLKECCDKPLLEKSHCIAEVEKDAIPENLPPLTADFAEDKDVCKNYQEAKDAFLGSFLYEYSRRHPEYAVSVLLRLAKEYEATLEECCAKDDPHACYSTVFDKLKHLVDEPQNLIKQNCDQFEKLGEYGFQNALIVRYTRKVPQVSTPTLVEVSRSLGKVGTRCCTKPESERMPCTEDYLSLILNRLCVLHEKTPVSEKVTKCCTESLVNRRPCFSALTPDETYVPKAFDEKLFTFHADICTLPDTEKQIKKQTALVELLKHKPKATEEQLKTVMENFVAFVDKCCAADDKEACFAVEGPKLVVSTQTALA

For `COc1ccc(-c2cc(=O)c3c(O)cc(O[C@@H]4O[C@H](CO[C@@H]5O[C@@H](C)[C@H](O)[C@@H](O)[C@H]5O)[C@@H](O)[C@H](O)[C@H]4O)cc3o2)cc1O` [DIOSMIN], the IC50 (SK-BR-3 [1]) was > 100 µM, the deltaG (Albumin [2]) was -4.687 kcal/mol and the deltaG (Albumin [3]) was -5.373 kcal/mol. The KSV (Albumin [4]) was 3.08 10^4L/mol, the Kq (Albumin [5]) was 1.18 10^12L/mol/s and the KSV (Albumin [6]) was 1.95 10^4L/mol. The deltaH (Albumin [7]) was -35.057 kcal/mol, the Activity (T47D [8]) was 96% and the Kq (Albumin [9]) was 3.08 10^12L/mol/s. For the same compound, the IC50 (A549 [10]) was > 40 µM, the Activity (SK-BR-3 [11]) was 104% and the Activity (MDA-MB-231 [12]) was 110%. The Ka (Albumin [13]) was 0.19 10^4L/mol, the Activity [14] was 14% and the TIME [15] was 0.0233 h. The Activity (A549 [16]) was “inactive”, the Activity (A549 [17]) was “inactive” and the Activity [18] was “inactive”. It also gave an Activity (MDA-MB-231 [19]) of 104%, an Activity (T47D [20]) of 99% and an Activity (T47D [21]) of 105%. For the same compound, the KSV (Albumin [22]) was 1.18 10^4L/mol, the Activity (SK-BR-3 [23]) was 78% and the deltaG (Albumin [24]) was -5.863 kcal/mol. For the same compound, the IC50 (T47D [25]) was > 100 µM, the Ka (Albumin [26]) was 0.88 10^4L/mol and the Ka (Albumin [27]) was 1.84 10^4L/mol. The IC50 (MDA-MB-231 [28]) was 70 µM, the Kq (Albumin [29]) was 1.95 10^12L/mol/s and the Activity [30] was “inactive”. It also gave an Activity (SK-BR-3 [31]) of 116% and an Activity (MDA-MB-231 [32]) of 106%.
